# Patent US20250353852A1, “COMPOUNDS AND COMPOSITIONS THAT INHIBIT PIKFYVE” (Kineta, Inc., priority 2021, published 2025)
# Biological target: full-length human PIKFYVE (Homo sapiens (Human), UniProt Q9Y2I7, L932S/Q1183K/Q995L/S1033A/S696N/T998S)
# Test: PIKfyve biochemical assay (ADP-Glo Kinase assay, Carna Biosciences)
# Conditions: class symbols
# Excerpt: PIKfyve Biochemical Assay. The biochemical […] inhibition assays were run by Carna Biosciences according to proprietary methodology based on the Promega […] Kinase assay. […] NP_055855.2] was expressed as N-terminal GST-fusion protein (265 kDa) using baculovirus expression system. GST-PIKFYVE was purified by using glutathione sepharose chromatography and used in an ADP-GloTM Kinase assay (Promega). Reactions were set up by adding the test compound solution, substrate solution, ATP solution and kinase solution, each at 4× final concentrations. Reactions were prepared with assay buffer (50 mM MOPS, 1 mM DTT, pH7.2), mixed, and incubated in black 384 well polystyrene plates for 1 hour at room temperature. ADP-Glo^TM reagent was then added for 40 minutes, followed by kinase detection reagent for an additional 40 minutes. The kinase activity was evaluated by detecting relative light units on a luminescence plate reader. […] IC50 values were calculated from concentration vs % inhibition curves by fitting to a four-parameter logistic curve. […] The biochemical […] inhibition assays were run by Carna Biosciences according to proprietary methodology based on the Promega ADP-GloTM Kinase assay. […] GST-PIKFYVE was purified by using glutathione sepharose chromatography and used in an ADP-GIoTM Kinase assay (Promega). Reactions were set up by adding the test compound solution, substrate solution, ATP solution and kinase solution, each at 4× final concentrations. Reactions were prepared with assay buffer (50 mM MOPS, 1 mM DTT, pH7.2), mixed, and incubated in black 384 well polystyrene plates for 1 hour at room temperature. ADP-GIoTM reagent was then added for 40 minutes, followed by kinase detection reagent for an additional 40 minutes. The kinase activity was evaluated by detecting relative light units on a luminescence plate reader. […] IC50 values were calculated from concentration vs % inhibition curves by fitting to a four-parameter logistic curve. […] The same compounds were also tested in both FAB1 and PIKFYVE TDP-43 yeast models.
# Chain of full-length human PIKFYVE (Q9Y2I7 whole entry S696N/L932S/Q995L/T998S/S1033A/Q1183K): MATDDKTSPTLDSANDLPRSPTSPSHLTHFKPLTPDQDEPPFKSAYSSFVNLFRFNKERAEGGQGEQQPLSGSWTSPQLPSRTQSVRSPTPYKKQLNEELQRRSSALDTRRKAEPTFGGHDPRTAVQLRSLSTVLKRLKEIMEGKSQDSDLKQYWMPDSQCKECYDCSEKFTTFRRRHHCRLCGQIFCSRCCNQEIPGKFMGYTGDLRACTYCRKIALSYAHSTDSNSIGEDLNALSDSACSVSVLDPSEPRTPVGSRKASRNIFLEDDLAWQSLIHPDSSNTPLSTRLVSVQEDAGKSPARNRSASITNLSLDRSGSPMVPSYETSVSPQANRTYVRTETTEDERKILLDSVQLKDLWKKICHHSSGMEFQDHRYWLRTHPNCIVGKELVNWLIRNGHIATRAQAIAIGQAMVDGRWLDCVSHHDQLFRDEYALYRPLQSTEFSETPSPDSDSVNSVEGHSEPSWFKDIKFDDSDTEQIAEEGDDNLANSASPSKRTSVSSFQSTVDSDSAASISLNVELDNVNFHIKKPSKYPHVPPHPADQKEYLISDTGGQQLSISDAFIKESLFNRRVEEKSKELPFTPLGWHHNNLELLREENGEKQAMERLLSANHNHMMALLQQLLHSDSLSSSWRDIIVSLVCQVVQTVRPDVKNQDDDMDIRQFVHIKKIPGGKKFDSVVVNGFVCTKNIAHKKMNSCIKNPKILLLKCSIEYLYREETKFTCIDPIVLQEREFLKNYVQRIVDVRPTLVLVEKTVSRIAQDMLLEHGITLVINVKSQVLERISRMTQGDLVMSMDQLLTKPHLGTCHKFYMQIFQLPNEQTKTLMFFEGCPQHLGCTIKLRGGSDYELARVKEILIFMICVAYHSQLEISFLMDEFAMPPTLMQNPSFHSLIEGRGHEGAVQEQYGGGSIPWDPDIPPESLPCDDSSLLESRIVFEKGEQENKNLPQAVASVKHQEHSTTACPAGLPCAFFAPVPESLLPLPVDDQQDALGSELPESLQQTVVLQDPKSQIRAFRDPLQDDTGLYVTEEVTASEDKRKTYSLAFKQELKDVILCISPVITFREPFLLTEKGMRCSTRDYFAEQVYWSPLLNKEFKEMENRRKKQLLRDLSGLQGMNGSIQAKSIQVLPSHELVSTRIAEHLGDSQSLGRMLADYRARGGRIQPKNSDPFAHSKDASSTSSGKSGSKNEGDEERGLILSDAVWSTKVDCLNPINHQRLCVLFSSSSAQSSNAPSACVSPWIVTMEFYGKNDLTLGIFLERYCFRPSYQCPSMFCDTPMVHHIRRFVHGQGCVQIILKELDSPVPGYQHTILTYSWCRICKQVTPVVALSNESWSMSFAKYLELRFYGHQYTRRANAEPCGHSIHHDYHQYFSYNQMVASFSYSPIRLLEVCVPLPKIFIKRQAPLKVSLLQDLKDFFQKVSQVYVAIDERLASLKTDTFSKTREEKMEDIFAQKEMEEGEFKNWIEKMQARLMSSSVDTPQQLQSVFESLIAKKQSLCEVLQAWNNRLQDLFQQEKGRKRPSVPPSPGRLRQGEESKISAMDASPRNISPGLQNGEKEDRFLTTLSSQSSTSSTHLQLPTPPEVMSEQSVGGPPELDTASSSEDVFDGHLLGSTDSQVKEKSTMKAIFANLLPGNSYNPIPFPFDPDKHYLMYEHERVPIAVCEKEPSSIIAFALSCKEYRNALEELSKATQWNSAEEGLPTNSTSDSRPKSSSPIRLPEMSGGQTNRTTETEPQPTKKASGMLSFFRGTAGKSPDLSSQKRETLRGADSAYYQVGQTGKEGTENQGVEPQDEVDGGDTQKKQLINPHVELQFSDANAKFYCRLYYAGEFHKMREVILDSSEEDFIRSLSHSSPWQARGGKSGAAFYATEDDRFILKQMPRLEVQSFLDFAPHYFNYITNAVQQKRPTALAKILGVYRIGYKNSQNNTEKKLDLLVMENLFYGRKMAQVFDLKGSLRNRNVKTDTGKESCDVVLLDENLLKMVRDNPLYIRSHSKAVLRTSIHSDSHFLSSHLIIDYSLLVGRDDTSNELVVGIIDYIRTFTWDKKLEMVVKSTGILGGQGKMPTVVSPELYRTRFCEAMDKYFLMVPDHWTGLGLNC
row,Molecule,IC50
1,"O=c1c(-c2ccccc2)ccnn1-c1cc(N2CCOCC2)n2nc(-c3ccncc3)cc2n1 [Compound 5, 2-(7-morpholino-2-(pyridin-4-yl)pyrazolo[1,5-a]pyrimidin-5-yl)-4-phenylpyridazin-3(2H)-one]",0.1 to 1 µM
2,"CC(C)(C)OC(=O)N1CCCC(c2cn(-c3cc(N4CCOCC4)n4nc(-c5ccncc5)cc4n3)cn2)C1 (stereo not drawn) [Compound 15, tert-butyl 3-(1-(7-morpholino-2-(pyridin-4-yl)pyrazolo[1,5-a]pyrimidin-5-yl)-1H-imidazol-4-yl)piperidine-1-carboxylate]",1 to 10 µM
3,"Cc1cccc(/C=N/Nc2cc(N3CC4CC3CO4)n3nc(-c4ccncc4)cc3n2)c1 (stereo not drawn) [Compound 1, (E)-5-(5-(2-(3-methylbenzylidene)hydrazinyl)-2-(pyridin-4-yl)pyrazolo[1,5-a]pyrimidin-7-yl)-2-oxa-5-azabicyclo[2.2.1]heptane]",0.01 to 0.1 µM
4,"4-(5-(3-(2-fluorophenyl)-1H-pyrazol-1-yl)-2-(tetrahydrofuran-2-yl)pyrazolo[1,5-a]pyrimidin-7-yl)morpholine [Compound 91]",0.1 to 1 µM
5,"c1cc(-c2cc3nc(-n4cc5c(n4)CCOC5)cc(N4CCOCC4)n3n2)ccn1 [Compound 89, 2-(7-morpholino-2-(pyridin-4-yl)pyrazolo[1,5-a]pyrimidin-5-yl)-2,4,6,7-tetrahydropyrano[4,3-c]pyrazole]",0.1 to 1 µM
6,"c1ccc(C2CCCN(c3cc(N4CCOCC4)n4nc(-c5ccncc5)cc4n3)C2)cc1 (stereo not drawn) [Compound 34, 4-(5-(3-phenylpiperidin-1-yl)-2-(pyridin-4-yl)pyrazolo[1,5-a]pyrimidin-7-yl)morpholine]",1 to 10 µM
7,"c1ccc(CC2CNCCN2c2cc(N3CCOCC3)n3nc(-c4ccncc4)cc3n2)cc1 (stereo not drawn) [Compound 117, 4-(5-(2-benzylpiperazin-1-yl)-2-(pyridin-4-yl)pyrazolo[1,5-a]pyrimidin-7-yl)morpholine]",1 to 10 µM
8,"4-(5-(3-(3-fluorophenyl)-1H-pyrazol-1-yl)-2-(pyridin-4-yl)pyrazolo[1,5-a]pyrimidin-7-yl)morpholine [Compound 64]",0.01 to 0.1 µM
9,"c1cc(-c2cc3nc(-n4ncc5c4CCCC5)cc(N4CCOCC4)n3n2)ccn1 [Compound 86, 4-(2-(pyridin-4-yl)-5-(4,5,6,7-tetrahydro-1H-indazol-1-yl)pyrazolo[1,5-a]pyrimidin-7-yl)morpholine]",1 to 10 µM
10,"OCC1(c2ccn(-c3cc(N4CCOCC4)n4nc(-c5ccncc5)cc4n3)n2)CC1 [Compound 82, (1-(1-(7-morpholino-2-(pyridin-4-yl)pyrazolo[1,5-a]pyrimidin-5-yl)-1H-pyrazol-3-yl)cyclopropyl)methanol]",0.1 to 1 µM
11,"Cc1ccccc1-c1cc(O)n(-c2cc(N3CCOCC3)n3nc(-c4ccncc4)cc3n2)n1 [Compound 46, 1-(7-morpholino-2-(pyridin-4-yl)pyrazolo[1,5-a]pyrimidin-5-yl)-3-(o-tolyl)-1H-pyrazol-5-ol]",0.01 to 0.1 µM
12,"c1c(-n2cc3c(n2)CCOC3)nc2cc(C3CCCO3)nn2c1N1CCOCC1 (stereo not drawn) [Compound 99, 2-(7-morpholino-2-(tetrahydrofuran-2-yl)pyrazolo[1,5-a]pyrimidin-5-yl)-2,4,6,7-tetrahydropyrano[4,3-c]pyrazole]",> 10 µM
13,"OCC(O)c1cc2nc(-n3ccc(-c4ccccc4)n3)cc(N3CCOCC3)n2n1 (stereo not drawn) [Compound 144, 1-(7-morpholino-5-(3-phenyl-1H-pyrazol-1-yl)pyrazolo[1,5-a]pyrimidin-2-yl)ethane-1,2-diol]",0.01 to 0.1 µM
14,"Oc1cc(-c2cc(N3CCOCC3)n3nc(-c4ccncc4)cc3n2)nn1-c1ccccc1 [Compound 57, 3-(7-morpholino-2-(pyridin-4-yl)pyrazolo[1,5-a]pyrimidin-5-yl)-1-phenyl-1H-pyrazol-5-ol]",0.01 to 0.1 µM
15,"Fc1cccc(-c2nccc(-c3cc(N4CCOCC4)n4nc(-c5ccncc5)cc4n3)n2)c1 [Compound 139, 4-(5-(2-(3-fluorophenyl)pyrimidin-4-yl)-2-(pyridin-4-yl)pyrazolo[1,5-a]pyrimidin-7-yl)morpholine]",0.1 to 1 µM
16,"C1=C(c2cn(-c3cc(N4CCOCC4)n4nc(-c5ccncc5)cc4n3)cn2)CNCC1 [Compound 17, 4-(2-(pyridin-4-yl)-5-(4-(1,2,5,6-tetrahydropyridin-3-yl)-1H-imidazol-1-yl)pyrazolo[1,5-a]pyrimidin-7-yl)morpholine]",1 to 10 µM
17,"CN1CCN(c2cc(N3CCOCC3)n3nc(-c4ccncc4)cc3n2)CC1c1ccccc1 (stereo not drawn) [Compound 38, 4-(5-(4-methyl-3-phenylpiperazin-1-yl)-2-(pyridin-4-yl)pyrazolo[1,5-a]pyrimidin-7-yl)morpholine]",1 to 10 µM

row,Molecule,IC50
1,"c1ccc(-c2nnc(-c3cc(N4CCOCC4)n4nc(-c5ccncc5)cc4n3)o2)cc1 [Compound 130, 4-(5-(5-phenyl-1,3,4-oxadiazol-2-yl)-2-(pyridin-4-yl)pyrazolo[1,5-a]pyrimidin-7-yl)morpholine]",1 to 10 µM
2,"c1cc(-c2cc3nc(-n4ccc(C5CNC5)n4)cc(N4CCOCC4)n3n2)ccn1 [Compound 73, 4-(5-(3-(Azetidin-3-yl)-1H-pyrazol-1-yl)-2-(pyridin-4-yl)pyrazolo[1,5-a]pyrimidin-7-yl)morpholine]",0.1 to 1 µM
3,"c1ccc(C2CC(c3cc(N4CCOCC4)n4nc(-c5ccncc5)cc4n3)CN2)cc1 (stereo not drawn) [Compound 112, 4-(5-(5-phenylpyrrolidin-3-yl)-2-(pyridin-4-yl)pyrazolo[1,5-a]pyrimidin-7-yl)morpholine]",1 to 10 µM
4,"O=C1C(c2ccccc2)CCN1c1cc(N2CCOCC2)n2nc(-c3ccncc3)cc2n1 (stereo not drawn) [Compound 23, 1-(7-morpholino-2-(pyridin-4-yl)pyrazolo[1,5-a]pyrimidin-5-yl)-3-phenylpyrrolidin-2-one]",0.1 to 1 µM
5,"c1ccc(C2CN(c3cc(N4CCOCC4)n4nc(-c5ccncc5)cc4n3)CCN2)cc1 (stereo not drawn) [Compound 35, 4-(5-(3-phenylpiperazin-1-yl)-2-(pyridin-4-yl)pyrazolo[1,5-a]pyrimidin-7-yl)morpholine]",1 to 10 µM
6,"O=C(/C=C/c1ccccc1)c1cc(N2CCOCC2)n2nc(-c3ccncc3)cc2n1 [Compound 114, 1-(7-morpholino-2-(pyridin-4-yl)pyrazolo[1,5-a]pyrimidin-5-yl)-3-phenylprop-2-en-1-one]",1 to 10 µM
7,"c1ccc(-n2ccc(-c3cc(N4CCOCC4)n4nc(C5CCCO5)cc4n3)n2)cc1 (stereo not drawn) [Compound 96, 4-(5-(1-phenyl-1H-pyrazol-3-yl)-2-(tetrahydrofuran-2-yl)pyrazolo[1,5-a]pyrimidin-7-yl)morpholine]",0.1 to 1 µM
8,"c1cc(-c2cc3nc(-n4ccc(-c5ccnnc5)n4)cc(N4CCOCC4)n3n2)ccn1 [Compound 69, 4-(5-(3-(pyridazin-4-yl)-1H-pyrazol-1-yl)-2-(pyridin-4-yl)pyrazolo[1,5-a]pyrimidin-7-yl)morpholine]",0.1 to 1 µM
9,"O=c1c(Br)c(Br)cnn1-c1cc(N2CCOCC2)n2nc(-c3ccncc3)cc2n1 [Compound 4, 4,5-dibromo-2-(7-morpholino-2-(pyridin-4-yl)pyrazolo[1,5-a]pyrimidin-5-yl)pyridazin-3(2H)-one]",1 to 10 µM
10,"Oc1cc(-c2ccccc2F)nn1-c1cc(N2CCOCC2)n2nc(-c3ccncc3)cc2n1 [Compound 53, 3-(2-fluorophenyl)-1-(7-morpholino-2-(pyridin-4-yl)pyrazolo[1,5-a]pyrimidin-5-yl)-1H-pyrazol-5-ol]",0.01 to 0.1 µM
11,"c1ccc(Oc2cccnc2-c2cc(N3CCOCC3)n3nc(-c4ccncc4)cc3n2)cc1 [Compound 41, 4-(5-(3-phenoxypyridin-2-yl)-2-(pyridin-4-yl)pyrazolo[1,5-a]pyrimidin-7-yl)morpholine]",0.1 to 1 µM
12,"CNC(COc1cc(N2CCOCC2)n2nc(-c3ccncc3)cc2n1)c1cccc(C)c1 (stereo not drawn) [Compound 126, N-methyl-2-((7-morpholino-2-(pyridin-4-yl)pyrazolo[1,5-a]pyrimidin-5-yl)oxy)-1-(m-tolyl)ethan-1-amine]",1 to 10 µM
13,"O=c1ccc(-c2ccccc2)nn1-c1cc(N2CCOCC2)n2nc(-c3ccncc3)cc2n1 [Compound 3, 2-(7-morpholino-2-(pyridin-4-yl)pyrazolo[1,5-a]pyrimidin-5-yl)-6-phenylpyridazin-3(2H)-one]",0.1 to 1 µM
14,"Fc1ccc(Oc2ncccc2-c2cc(N3CCOCC3)n3nc(-c4ccncc4)cc3n2)cc1 [Compound 138, 4-(5-(2-(4-fluorophenoxy)pyridin-3-yl)-2-(pyridin-4-yl)pyrazolo[1,5-a]pyrimidin-7-yl)morpholine]",0.1 to 1 µM
15,"CN1CCN(c2cc(N3CCOCC3)n3nc(-c4ccncc4)cc3n2)C(=O)C1c1ccccc1 (stereo not drawn) [Compound 27, 4-methyl-1-(7-morpholino-2-(pyridin-4-yl)pyrazolo[1,5-a]pyrimidin-5-yI)-3-phenylpiperazin-2-one]",1 to 10 µM
16,"C=Cc1cc2nc(-n3ccc(-c4ccccc4)n3)cc(N3CCOCC3)n2n1 [Compound 143, 4-(5-(3-phenyl-1H-pyrazol-1-yl)-2-vinylpyrazolo[1,5-a]pyrimidin-7-yl)morpholine]",0.1 to 1 µM
